Here are results for two compounds from patent publication US10918743B2, “Contrast medium formulation and related preparation method” (GUERBET, priority 2013, dated 2021).

This data set is described as follows: Thermodynamic equilibrium constant for the complexation of Gd3+. The class given is physicochemical. The note with it: complexation of Gd^3+ by the ligand. The text has this: In the particular case where M represents a gadolinium ion, for the following chemical equilibria: [drawing 3] and DOTA+Gd ? [DOTA-Gd] (equation 2) the thermodynamic equilibrium constant of equation 1 (i.e. for the complexation of Gd^3+ by the ligand of formula I') is 10^14.9 (i.e. log ([…])=14.9), while the thermodynamic equilibrium constant of equation 2 (i.e. for the complexation of Gd^3+ by DOTA) is 10^25.6 (i.e. log ([…])=25.6). Thus, the formulations according to the invention go against the teachings of document U.S. Pat. No. 5,876,695 in particular, since the complex of DOTA with the gadolinium ion is more thermodynamically stable than the active complex.

Structures are written as SMILES.

For the compound `O=C(O)CN1CCN(CC(=O)O)CCN(CC(=O)O)CCN(CC(=O)O)CC1` [DOTA, 1,4,7,10-tetraazacyclododecane-1,4,7,10-tetraacetic acid], the “log (Ktherm), thermodynamic equilibrium constant” value amounted to 25.6.
With `O=C(CCC(C(=O)O)N1CCN(C(CCC(=O)NCC(O)CO)C(=O)O)Cc2cccc(n2)CN(C(CCC(=O)NCC(O)CO)C(=O)O)CC1)NCC(O)CO` (centres unmarked) [ligand of formula I′], the “log (Ktherm), thermodynamic equilibrium constant” value was found to be 14.9.
